The text below walks through data of the supplement of paper PMC10307832.

Holding throughout (test): relative viability (nuclei count vs DMSO), 5 days (fraction); higher = more cells survive
Compound in assay [1]: CO[C@@H]1[C@H](N(C)C(=O)c2ccccc2)C[C@H]2O[C@]1(C)n1c3ccccc3c3c4c(c5c6ccccc6n2c5c31)C(=O)NC4 [Midostaurin] + Cc1nc(NC(=O)N2CCC[C@H]2C(N)=O)sc1-c1ccnc(C(C)(C)C(F)(F)F)c1 [Alpelisib] (partner 2 µM)
The gist of the method:
(§1)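 Values are medians from duplicate plates. Each reflects relative viability, defined as the nuclei count of treated wells over that of vehicle wells. Lung cancer cell lines in 1536-well plates were pin-tool dosed one day after seeding with one drug alone or with a fixed anchor-drug dose plus five library-drug doses (not always all listed) in √10 steps, then fixed, stained and imaged at 4× after 5 days.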

Compound in assay [2]: CO[C@@H]1[C@H](N(C)C(=O)c2ccccc2)C[C@H]2O[C@]1(C)n1c3ccccc3c3c4c(c5c6ccccc6n2c5c31)C(=O)NC4 [Midostaurin] + N=C(N)NC(=N)NCCc1ccccc1 [Phenformin] (partner 250 µM)
The gist of the method:
as §1

Compound in assay [3]: CO[C@@H]1[C@H](N(C)C(=O)c2ccccc2)C[C@H]2O[C@]1(C)n1c3ccccc3c3c4c(c5c6ccccc6n2c5c31)C(=O)NC4 [Midostaurin] + Nc1ncn([C@H]2C[C@H](O)[C@@H](CO)O2)c(=O)n1 [Decitabine] (partner 2 µM)
In short, it runs like this: as §1

Compound in assay [4]: COc1cc(-c2nn([C@H]3CC[C@H](N4CCN(C(C)=O)CC4)CC3)c3ncnc(N)c23)ccc1NC(=O)c1cc2ccccc2n1C + Cc1nc(NC(=O)N2CCC[C@H]2C(N)=O)sc1-c1ccnc(C(C)(C)C(F)(F)F)c1 [Alpelisib] (partner 2 µM)
In short, it runs like this:
as §1

Compound in assay [5]: COc1cc(-c2nn([C@H]3CC[C@H](N4CCN(C(C)=O)CC4)CC3)c3ncnc(N)c23)ccc1NC(=O)c1cc2ccccc2n1C + CS(=O)(=O)CCNCc1ccc(-c2ccc3ncnc(Nc4ccc(OCc5cccc(F)c5)c(Cl)c4)c3c2)o1 [Lapatinib] (partner 2 µM)
In short, it runs like this: as §1

As for LCLC-103H, the relative viability came to 0.932 in assay [1] (first compound 0.01 µM); 0.979 in assay [1] (first compound 0.03162 µM); 1.04 in assay [1] (first compound 0.1 µM); 1.06 in assay [1] (first compound 0.3162 µM); 0.347 in assay [2] (first compound 0.01 µM); 0.309 in assay [2] (first compound 0.03162 µM). The relative viability in assay [2] (first compound 0.1 µM) turned out to be 0.359; in assay [2] (first compound 0.3162 µM) it was 0.366; in assay [3] (first compound 0.01 µM) it was 0.712; in assay [3] (first compound 0.03162 µM) it was 0.742; in assay [3] (first compound 0.1 µM), 0.752; in assay [3] (first compound 0.3162 µM) it was 0.757. Also, the relative viability in assay [4] (first compound 0.0128 µM) was 1.02; in assay [4] (first compound 0.04048 µM), 0.938; in assay [4] (first compound 0.128 µM) it was 0.88; in assay [4] (first compound 1.28 µM), 0.775.
Consider LK-2, for which the relative viability amounted to 1.09 in assay [1] (first compound 0.01 µM); 1.48 in assay [1] (first compound 0.03162 µM); 1.11 in assay [1] (first compound 0.1 µM); 1.05 in assay [1] (first compound 0.3162 µM); 0.425 in assay [2] (first compound 0.01 µM); 0.571 in assay [2] (first compound 0.03162 µM). Also, the relative viability in assay [2] (first compound 0.1 µM) came out at 0.492; in assay [2] (first compound 0.3162 µM), 0.374; in assay [3] (first compound 0.01 µM) it was 0.262; in assay [3] (first compound 0.03162 µM) it was 0.272; in assay [3] (first compound 0.1 µM) it was 0.405; in assay [3] (first compound 0.3162 µM), 0.299. The relative viability in assay [5] (first compound 0.0128 µM) worked out at 1.09; in assay [5] (first compound 0.04048 µM), 0.981; in assay [5] (first compound 0.128 µM) it was 0.83; in assay [5] (first compound 1.28 µM) it was 0.777; in assay [4] (first compound 0.0128 µM), 0.91; in assay [4] (first compound 0.04048 µM), 1.26. Also, the relative viability in assay [4] (first compound 0.128 µM) is 1.07; in assay [4] (first compound 1.28 µM), 0.789.
For NCI-H441, the relative viability in assay [1] (first compound 0.01 µM) is 0.817; in assay [1] (first compound 0.03162 µM), 0.669; in assay [1] (first compound 0.1 µM) it was 0.536; in assay [1] (first compound 0.3162 µM), 0.736; in assay [2] (first compound 0.01 µM), 0.914; in assay [2] (first compound 0.03162 µM) it was 0.773. The relative viability in assay [2] (first compound 0.1 µM) stood at 0.747; in assay [2] (first compound 0.3162 µM), 0.768; in assay [3] (first compound 0.01 µM) it was 0.249; in assay [3] (first compound 0.03162 µM), 0.237; in assay [3] (first compound 0.1 µM) it was 0.221; in assay [3] (first compound 0.3162 µM), 0.23. In addition, the relative viability in assay [4] (first compound 0.0128 µM) was found to be 0.762; in assay [4] (first compound 0.04048 µM), 0.985; in assay [4] (first compound 0.128 µM), 0.556; in assay [4] (first compound 1.28 µM), 0.576.
Regarding NCI-H522, the relative viability in assay [2] (first compound 0.01 µM) stood at 0.596; in assay [2] (first compound 0.03162 µM), 0.706; in assay [2] (first compound 0.1 µM), 0.655; in assay [2] (first compound 0.3162 µM) it was 0.753; in assay [3] (first compound 0.01 µM) it was 0.584; in assay [3] (first compound 0.03162 µM), 0.638. For the same cell line, the figures for the relative viability in assay [3] (first compound 0.1 µM) and in assay [3] (first compound 0.3162 µM) were 0.822 and 0.525, respectively.
NCI-H1299: the relative viability stood at 1.03 in assay [1] (first compound 0.01 µM); 1.05 in assay [1] (first compound 0.03162 µM); 1.04 in assay [1] (first compound 0.1 µM); 1.03 in assay [1] (first compound 0.3162 µM); 0.997 in assay [5] (first compound 0.0128 µM); 1.11 in assay [5] (first compound 0.04048 µM). Moreover, the relative viability in assay [5] (first compound 0.128 µM) amounted to 0.984; in assay [5] (first compound 1.28 µM), 1.04; in assay [4] (first compound 0.0128 µM), 1.1; in assay [4] (first compound 0.04048 µM), 1.11; in assay [4] (first compound 0.128 µM), 1.06; in assay [4] (first compound 1.28 µM) it was 1.08.
As to NCI-H1563, the relative viability was 1.09 in assay [1] (first compound 0.01 µM); 1.07 in assay [1] (first compound 0.03162 µM); 0.907 in assay [1] (first compound 0.1 µM); 0.78 in assay [1] (first compound 0.3162 µM); 0.693 in assay [2] (first compound 0.01 µM); 0.672 in assay [2] (first compound 0.03162 µM). Besides, the relative viability in assay [2] (first compound 0.1 µM) came out at 0.697; in assay [2] (first compound 0.3162 µM) it was 0.682; in assay [5] (first compound 0.0128 µM), 1.01; in assay [5] (first compound 0.04048 µM), 0.961; in assay [5] (first compound 0.128 µM) it was 0.822; in assay [5] (first compound 1.28 µM), 0.681. Moreover, the relative viability in assay [4] (first compound 0.0128 µM) is 0.876; in assay [4] (first compound 0.04048 µM) it was 0.918; in assay [4] (first compound 0.128 µM) it was 0.998; in assay [4] (first compound 1.28 µM), 0.865.
As for NCI-H1623, the relative viability is 0.588 in assay [2] (first compound 0.01 µM), 0.626 in assay [2] (first compound 0.03162 µM), 0.56 in assay [2] (first compound 0.1 µM) and 0.634 in assay [2] (first compound 0.3162 µM).
As to NCI-H1648, the relative viability worked out at 0.499 in assay [3] (first compound 0.01 µM) and 0.446 in assay [3] (first compound 0.3162 µM).
On to NCI-H1650, for which the relative viability in assay [2] (first compound 0.01 µM) was found to be 0.408; in assay [2] (first compound 0.03162 µM) it was 0.498; in assay [2] (first compound 0.1 µM) it was 0.413; in assay [2] (first compound 0.3162 µM) it was 0.302; in assay [3] (first compound 0.01 µM) it was 0.352; in assay [3] (first compound 0.03162 µM), 0.418. Moreover, the relative viability in assay [3] (first compound 0.1 µM) turned out to be 0.426; in assay [3] (first compound 0.3162 µM), 0.517; in assay [5] (first compound 0.0128 µM), 0.782; in assay [5] (first compound 0.04048 µM) it was 0.846; in assay [5] (first compound 0.128 µM) it was 0.69; in assay [5] (first compound 1.28 µM), 0.6.
Turning to NCI-H1703, the relative viability was determined as 0.343 in assay [1] (first compound 0.01 µM); 0.369 in assay [1] (first compound 0.03162 µM); 0.27 in assay [1] (first compound 0.1 µM); 0.209 in assay [1] (first compound 0.3162 µM); 1.09 in assay [5] (first compound 0.0128 µM); 0.988 in assay [5] (first compound 0.04048 µM). The relative viability came to 0.842 in assay [5] (first compound 0.128 µM); 0.352 in assay [5] (first compound 1.28 µM); 0.372 in assay [4] (first compound 0.0128 µM); 0.243 in assay [4] (first compound 0.04048 µM); 0.228 in assay [4] (first compound 0.128 µM); 0.157 in assay [4] (first compound 1.28 µM).
Turning to NCI-H2228, the relative viability stood at 0.891 in assay [1] (first compound 0.01 µM); 0.762 in assay [1] (first compound 0.03162 µM); 0.7 in assay [1] (first compound 0.1 µM); 0.695 in assay [1] (first compound 0.3162 µM); 0.405 in assay [2] (first compound 0.01 µM); 0.363 in assay [2] (first compound 0.03162 µM). Also, the relative viability in assay [2] (first compound 0.1 µM) amounted to 0.366; in assay [2] (first compound 0.3162 µM), 0.5; in assay [5] (first compound 0.0128 µM), 1.37; in assay [5] (first compound 0.04048 µM), 0.958; in assay [5] (first compound 0.128 µM), 1.14; in assay [5] (first compound 1.28 µM), 0.861. For the same cell line, the relative viability came out at 0.774 in assay [4] (first compound 0.0128 µM), 0.793 in assay [4] (first compound 0.04048 µM), 0.692 in assay [4] (first compound 0.128 µM) and 0.45 in assay [4] (first compound 1.28 µM).
In the case of NCI-H2342, the relative viability turned out to be 0.657 in assay [2] (first compound 0.01 µM); 0.561 in assay [2] (first compound 0.03162 µM); 0.587 in assay [2] (first compound 0.1 µM); 0.643 in assay [2] (first compound 0.3162 µM); 0.73 in assay [3] (first compound 0.01 µM); 0.787 in assay [3] (first compound 0.03162 µM). Besides, the relative viability in assay [3] (first compound 0.1 µM) was determined as 0.716; in assay [3] (first compound 0.3162 µM), 0.827.
In the case of SW 900, the relative viability is 0.608 in assay [2] (first compound 0.01 µM); 0.451 in assay [2] (first compound 0.03162 µM); 0.653 in assay [2] (first compound 0.1 µM); 0.395 in assay [2] (first compound 0.3162 µM); 0.407 in assay [3] (first compound 0.01 µM); 0.491 in assay [3] (first compound 0.03162 µM). For the same cell line, the relative viability amounted to 0.439 in assay [3] (first compound 0.1 µM) and 0.433 in assay [3] (first compound 0.3162 µM).
